Read-outs that look alike come from different tables or passages of the source.
Key:
[1] = target: T1, PEGylated BSA (1 PEG chain per BSA molecule) (Bos taurus, UniProt P02769); assay: Viscosity of PEGylated BSA with 1 PEG chain per BSA with excipient, microVisc (Example 17); format: physicochemical; conditions: excipient 40 mg/mL
T1 construct: purchased Aldrich A7906
Protocol: To a beaker was added 200 mL of a phosphate buffered saline (Aldrich Cat. #P4417) and 4 g of BSA (Aldrich Cat. #A7906) and mixed with a magnetic bar. Next 400 mg of methoxy polyethylene glycol maleimide, MW=5,000, (Aldrich Cat. #63187) was added. The reaction mixture was allowed to react overnight at room temperature. The following day, 20 drops of HCl 0.1 M were added to stop the reaction. […] The reaction mixture was placed in an Amicon centrifuge tube with a molecular weight cutoff (MWCO) of 30,000 and concentrated to a few milliliters. Next the sample was diluted 20 times with a histidine buffer, 50 mM at a pH of approximately 6, followed by concentrating until a high viscosity fluid was obtained.
The viscometer measurements were completed at ambient temperature.

[2] = target: PEGylated lysozyme (Gallus gallus, UniProt P00698); conditions: excipient 20 mg/mL
Protocol: The solution was mixed by gently shaking and the viscosity was measured by a RheoSense microVisc equipped with an A10 channel (100 micron depth) at a shear rate of 500 sec−1. The viscometer measurements were completed at ambient temperature.

[3] = tested on: bovine gamma globulin (BGG); assay: Normalized viscosity of 280 mg/mL BGG in 50 mM histidine HCl with primary/secondary excipient combinations (Example 10); format: physicochemical
Protocol: The primary excipient compounds were selected from compounds having both anionic and aromatic functionality, as listed below in Table 5. The secondary excipient compounds were selected from compounds having either nonionic or cationic charge at pH 6 and either imidazoline or benzene rings, as listed below in Table 5. Formulations of these excipients were prepared in 50 mM histidine hydrochloride buffer solution for viscosity measurement in the following way. […] The individual primary or secondary excipient compounds were then dissolved in 50 mM histidine HCl.

[4] = tested on: bovine gamma globulin (BGG); assay: Normalized viscosity of 280 mg/mL BGG in distilled water with excipient combinations (Example 11); format: physicochemical; conditions: primary excipient 20 mg/mL, no secondary
Protocol: The primary excipient compounds were selected from compounds having both anionic and aromatic functionality, as listed below in Table 6. The secondary excipient compounds were selected from compounds having either nonionic or cationic charge at pH 6 and either imidazoline or benzene rings, as listed below in Table 6. Formulations of these excipients were prepared in distilled water for viscosity measurement in the following way. […].

[5] = tested on: bovine gamma globulin (BGG); conditions: caffeine 10 mg/ml
Protocol: Each buffer solution contained different excipient or combination of excipients as described in the table below. The viscosity of the solutions was measured as described in previous examples.

[6] = tested on: bovine gamma globulin (BGG); assay: Viscosity of 280 mg/mL BGG in histidine buffer pH 6 versus amount of arginine or caffeine added (Example 24); format: physicochemical
[7] = tested on: bovine gamma globulin (BGG); assay: Viscosity of 280 mg/mL BGG in 20 mM histidine pH 6 with different molar caffeine concentrations, microVisc (Example 31); format: physicochemical
Protocol: The formulations for this Example were prepared in 20 mM histidine buffer for viscosity measurement in the following way.
The viscometer was equipped with an A-10 chip having a channel depth of 100 microns, and was operated at a shear rate of 250 l/s and 25° C. To measure viscosity, the test formulation was loaded into the viscometer, taking care to remove all air bubbles from the pipet. The pipet containing the loaded sample formulation was placed in the instrument and allowed to incubate at the measurement temperature for about five minutes. The instrument was then run until the channel was fully equilibrated with the test fluid, indicated by a stable viscosity reading, and then the viscosity recorded in centipoise.

[8] = tested on: bovine gamma globulin (BGG); conditions: 280 mg/mL BGG, 20 mM histidine pH 6, 25° C.; Excipient A caffeine 15 mg/mL; no Excipient B
[9] = tested on: bevacizumab (AVASTIN®); assay: Viscosity of concentrated AVASTIN with and without caffeine, microVisc (Example 40); conditions: for % Viscosity Reduction from Excipient: 10 mg/mL caffeine
Protocol: The sample was concentrated in Amicon Ultra 4 centrifugal concentrator tubes (MWCO 30 kDa) at 3500 rpm. […] AVASTIN® stock solution was diluted with the excipient buffer then concentrated in Amicon Ultra 15 centrifugal concentrator tubes (MWCO 30 kDa). The concentration of the excipient samples was determined by Bradford assay and the viscosity was measured using the RheoSense microVisc.

T1 sequence (P02769 25-607): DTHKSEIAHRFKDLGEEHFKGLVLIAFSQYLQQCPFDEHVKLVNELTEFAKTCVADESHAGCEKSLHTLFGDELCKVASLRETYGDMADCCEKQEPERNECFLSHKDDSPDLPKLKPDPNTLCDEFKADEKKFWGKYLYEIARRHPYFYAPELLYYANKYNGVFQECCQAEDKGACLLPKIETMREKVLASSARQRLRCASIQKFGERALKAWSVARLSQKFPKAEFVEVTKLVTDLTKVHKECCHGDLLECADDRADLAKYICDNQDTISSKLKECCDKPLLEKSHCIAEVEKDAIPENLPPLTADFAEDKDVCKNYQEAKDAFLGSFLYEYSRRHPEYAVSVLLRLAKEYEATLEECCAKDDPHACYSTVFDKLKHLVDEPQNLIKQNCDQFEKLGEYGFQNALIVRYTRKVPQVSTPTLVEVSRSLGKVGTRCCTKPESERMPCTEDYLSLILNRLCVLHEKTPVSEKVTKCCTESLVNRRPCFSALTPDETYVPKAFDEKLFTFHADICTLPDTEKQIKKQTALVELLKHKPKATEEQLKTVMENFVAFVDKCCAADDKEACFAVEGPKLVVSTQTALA
Sequence of PEGylated lysozyme (P00698 19-147): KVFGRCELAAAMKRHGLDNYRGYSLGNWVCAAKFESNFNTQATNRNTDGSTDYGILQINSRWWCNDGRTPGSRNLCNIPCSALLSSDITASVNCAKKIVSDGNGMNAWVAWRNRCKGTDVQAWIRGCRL

CC(=O)[O-].[K+] [K acetate, potassium acetate]
Viscosity [1]: 89.5 cP | Viscosity Reduction [1]: 60% | Viscosity [2]: 22.6 cP | Viscosity Reduction [2]: 8%

O=C(O)c1ccccc1O [Salicylic Acid]
Normalized Viscosity ([3]; primary excipient 30 mg/mL, no secondary): 0.79 | Normalized Viscosity [4]: 0.96

Cn1c(=O)c2c(ncn2C)n(C)c1=O [Caffeine]
Normalized Viscosity ([3]; no primary, secondary excipient 10 mg/mL): 0.73 | Viscosity [5]: 87.9 cP | Viscosity Reduction [5]: 33% | Viscosity ([6]; caffeine added 10 mg/mL): 60 cP | Viscosity Reduction ([6]; caffeine added 10 mg/mL): 31% | Viscosity ([6]; caffeine added 15 mg/mL): 62 cP | Viscosity Reduction ([6]; caffeine added 15 mg/mL): 23% | Viscosity ([6]; caffeine added 22 mg/mL): 50 cP | Viscosity Reduction ([6]; caffeine added 22 mg/mL): 45% | Normalized Viscosity ([7]; caffeine 5 mM): 0.81 | Viscosity ([7]; caffeine 5 mM): 67 cP | Normalized Viscosity ([7]; caffeine 10 mM): 0.84 | Viscosity ([7]; caffeine 10 mM): 70 cP | Normalized Viscosity ([7]; caffeine 20 mM): 0.92 | Viscosity ([7]; caffeine 20 mM): 77 cP | Normalized Viscosity ([7]; caffeine 30 mM): 0.76 | Viscosity ([7]; caffeine 30 mM): 63 cP | Normalized Viscosity ([7]; caffeine 40 mM): 0.78 | Viscosity ([7]; caffeine 40 mM): 65 cP | Normalized Viscosity ([7]; caffeine 50 mM): 0.78 | Viscosity ([7]; caffeine 50 mM): 65 cP | Normalized Viscosity ([7]; caffeine 60 mM): 0.69 | Viscosity ([7]; caffeine 60 mM): 57 cP | Normalized Viscosity ([7]; caffeine 70 mM): 0.60 | Viscosity ([7]; caffeine 70 mM): 50 cP | Normalized Viscosity ([7]; caffeine 80 mM): 0.60 | Viscosity ([7]; caffeine 80 mM): 50 cP | Normalized Viscosity [8]: 0.77 | Viscosity with 10 mg/mL added caffeine excipient ([9]; concentration 190 mg/mL): 13 cP | % Viscosity Reduction from Excipient ([9]; concentration 190 mg/mL): 36% | % Viscosity Reduction from Excipient ([9]; concentration 266 mg/mL): 62%

— patent US11357857B2, “Excipient compounds for protein processing” (COMERA LIFE SCIENCES, INC., priority 2014, dated 2022)
